# From patent publication US11364258B2, “Methods for treating chondrosarcoma using microrna(miR)” (Rhode Island Hospital, priority 2016, dated 2022)
# How the values were obtained:
# [1] = test system: VEGF; test: ELISA of VEGF expression in chondrosarcoma cells after transfection; type: cell-based, human
# Description: (§1) Cell lines: Human primary chondrocytes and chondrosarcoma cell lines were cultured as previously described (Kulshreshtha et al., Cell Cycle. 2007; 6:1426-1431). CS-1 (a gift from Dr. Francis Hornicek, Harvard Medical School, Boston, Mass.) was cultured in Gibco RPMI 1640 Medium (Life Technologies, Grand Island, N.Y.), with 10% FBS in a humidified incubator (NuAire Inc, Plymouth, Minn.) under 5% CO2 and either normoxia (ambient oxygen) or hypoxia (2% O2)(11). CS-1 was derived from human grade III chondrosarcoma and metastasizes in a xenograft mouse model(Susa M, Morii T, Yabe H, Horiuchi K, Toyama Y, Weissbach L, et al. Alendronate inhibits growth of high-grade chondrosarcoma cells. Anticancer Res. 2009 June; 29(6):1879-88.). All cells were cultured in a humidified incubator (NuAire Inc, Plymouth, Minn., USA) under 5% CO2 and either normoxia or hypoxia (2% O2) (Lin et al., J Orthop Res. 2004; 22:1175-1181).
# Transfections were performed with GenMute transfection reagent (SignaGen Laboratories, Gaithersburg, Md.). pmiRZIP lentivector expressing anti-miR-181a or control sequence (SBI, Mountain View, Calif.) was used for permanent miR-181a knockdown experiments. Transduction-ready FIV-based pseudoviral particles were generated using pPACK-H1 Lentivector Packaging System together with 293TN cell line (SBI), at a titer of 1.06×10^9 IFU/ml. Control was Lenti-scramble Hairpin control pseudoviral particles at a titer of 1×10^9 IFU/ml. Cells were cultured in 12-well plates at a density of 1×10^5/well for 1 day, infected by pseudoviral particles (using a multiplicity of infection of 100 viruses per cell) and cultured for 72 hrs, then selected for puromycin (5 μg/ml) resistance for stable cell lines. Stably transduced cells were used for vitro and in vivo experiments.
# ELISA: Conditioned medium was obtained 72 hours after transfection. Soluble VEGF-165 and MMP1 were detected using VEGF and MMP1 Immunoassay kits (R&D Systems, Minneapolis, Minn.) according to manufacturer's instructions. VEGF-165 and MMP1 levels were measured two times for each condition and with normalization to the number of cells at the end of the culture period. Each experiment was repeated three times. Twenty mg of xenograft tumor tissue in RIPA buffer containing proteinase inhibitors (Roche) was homogenized on ice using TissueRuptor (Qiagen). Tissue lysates were centrifuge at 14000 rpm for 30 min, supernatant saved at −80° C. for later use. VEGF-165 levels in xenograft tumor lysates were normalized to total protein.
# [2] = test system: SSX1; test: qRT-PCR of SSX1 mRNA in chondrosarcoma cells; type: cell-based, human; conditions: 20 nM; vs control cells or anti-miR-34a; FIG. 10A
# Description: qRT-PCR: miR expression evaluated with qRT-PCR using Hs_miR-181a primer 5′-AACAUUCAACGCUGU-CGGUGAGU-3′ (SEQ ID NO:198) and 1280: 5′UCCCACCGCUGCCACCC-3′ (SEQ ID NO:199) (Qiagen). The comparative threshold cycle (Ct) method, i.e., 2-ΔΔCt method is used to calculate fold amplification. For quantification of mRNA, total RNA was isolated from chondrocytes, CS-1 cells, and xenograft mouse tumors using the RNAqueous® Kit (Ambion, Austin, Tex., USA). SYBR real-time PCR was carried out using two-step real-time qRT-PCR (Qiagen) with normalization to 18S rRNA (18S). The comparative threshold cycle (Ct) method, i.e., the 2-ΔΔCt method, was used for the calculation of fold amplification. Each experiment was evaluated with three PCR reactions and each experiment was repeated three times, the sample size necessary to maintain power at 0.80 to detect a 50% decrease with an alpha of 0.025 (one-tailed t-test).
# ELISA, western blot, qRT-PCR, and cell proliferation assays were performed as described above.
# [3] = test system: chondrosarcoma cells; test: CyQUANT cell proliferation assay; type: cell-based, human
# Description: as §1
# Cell proliferation assay: CyQUANT® Cell Proliferation Assay Kit according to manufacturer's protocol
# [4] = test system: metastasis; conditions: literature (Sun et al. 2013; Smith et al. 2004); cited from earlier work
# [5] = test system: placental growth factor (PLGF); test: Angiogenesis antibody array in chondrosarcoma cells (PLGF); type: cell-based, human; conditions: vs miR control; FIG. 3
# Description: (§2) Angiogenesis antibody array: Human Angiogenesis Array Kit is a membrane-based sandwich immunoassay. Samples are mixed with a cocktail of biotinylated detection antibodies and then incubated with the array membrane which is spotted in duplicate with capture antibodies to specific target proteins. Captured proteins are visualized using chemiluminescent detection reagents. The signal produced is proportional to the amount of bound analyte. It is sensitive and economical tool to simultaneously detect the relative levels of 55 angiogenesis-related proteins in a single sample.
# [6] = test system: VEGF; test: Angiogenesis antibody array in chondrosarcoma cells (VEGF); type: cell-based, human; conditions: vs miR control; FIG. 3
# Description: as §2
# [7] = test system: Met; test: Western blot of Met protein in chondrosarcoma cells; type: cell-based, human; conditions: vs miRNA control; FIG. 5
# Text: Western blot: Cell or tumor lysates containing forty μg of protein were separated via SDS-PAGE (Bio-Rad, Hercules, Calif.) and probed with antibodies for VEGF (VEGFA), MMP-1, SSX, and actin (Santa Cruz Biotechnology, Santa Cruz, Calif.). The fluorescent signals were detected using a fluorescently-labeled secondary goat anti-rabbit antibody (Alexa Fluor 680) (Molecular Probes, Eugene, Oreg.) and analyzed on Licor Odyssey Scanner (LI-COR Biosciences, Lincoln, Nebr.). Western Blot analyses were performed as previously described with specific antibodies (IMGNEX, San Diego, Calif.) and actin antibody (Santa Cruz Biotechnology, Santa Cruz, Calif.). Protein concentrations were determined using the Quick Start Bradford protein assay (Bio-Rad).
# [8] = test system: thrombospondin-1 (TSP-1); test: Angiogenesis antibody array in chondrosarcoma cells (TSP-1); type: cell-based, human; conditions: vs miR control; FIG. 3
# Description: as §2
compound,measurement,setting,value
"miR-34a: miR-34a mimic, the same sequence as miR-34a (guide AACAUUCAACGCUGUCGGUGAGU; synthetic mimic, further chemistry not given here)","VEGF protein expression (ELISA, western blot)","[1]; 20 nM, vs control miR, control anti-miR or anti-miR-34a, FIG. 7A-7C, p<0.02, n=3",significantly decreased expression of VEGF protein
same,VEGF expression over time (ELISA),"[1]; secreted VEGF, vs control miR, FIG. 8, p<0.001",decreased VEGF expression over time
same,SSX1 mRNA expression (qRT-PCR),[2],decreased SSX1 mRNA expression
same,chondrosarcoma cell growth rates over time,"[3]; miR-34a vs control miR, FIG. 9, p<0.001",significantly decreased growth rates over time
"c1cc(CN2CCCNCCNCCCNCC2)ccc1CN1CCCNCCNCCCNCC1 [AMD3100, plerixafor]",metastasis in mice,[4],reduce metastasis
"miR-126: miScript miRNA mimic of miR-126; mature sequence SEQ ID NO: 188 CAUUAUUACUUUUGGUACGCG (listed as RNA, chemistry not given here)",VEGF expression after transient transfection (ELISA),"[1]; 20 nM miR-126, 80 nM anti-miR-126, normoxic and hypoxic conditions, FIG. 2 bottom",reduced VEGF expression
same,VEGF expression (ELISA),"[1]; 10-80 nM of miR-126, normoxia and hypoxia (2% oxygen), FIG. 2 top",inhibited VEGF expression in a dose-dependent manner
same,chondrosarcoma cell growth over time,"[3]; 20 nM miR-126 vs control miR, FIG. 6",grew more slowly over time
same,PLGF expression (angiogenesis antibody array),[5],reduces the expression
same,VEGF expression (angiogenesis antibody array),[6],reduces the expression
same,Met protein expression (western blot),[7],expression of Met protein decreased
same,TSP-1 expression (angiogenesis antibody array),[8],reduces the expression
